target: human recombinant Btk (Homo sapiens (Human), UniProt Q06187); test: Btk enzymatic activity assay (Caliper-based kinase assay); assay type: biochemical; details: human recombinant Btk 2 nM, ATP 40 μM, peptide substrate 1 μM, room temperature 3 h; read-out: IC50 (μm)
Sequence (Q06187 whole entry): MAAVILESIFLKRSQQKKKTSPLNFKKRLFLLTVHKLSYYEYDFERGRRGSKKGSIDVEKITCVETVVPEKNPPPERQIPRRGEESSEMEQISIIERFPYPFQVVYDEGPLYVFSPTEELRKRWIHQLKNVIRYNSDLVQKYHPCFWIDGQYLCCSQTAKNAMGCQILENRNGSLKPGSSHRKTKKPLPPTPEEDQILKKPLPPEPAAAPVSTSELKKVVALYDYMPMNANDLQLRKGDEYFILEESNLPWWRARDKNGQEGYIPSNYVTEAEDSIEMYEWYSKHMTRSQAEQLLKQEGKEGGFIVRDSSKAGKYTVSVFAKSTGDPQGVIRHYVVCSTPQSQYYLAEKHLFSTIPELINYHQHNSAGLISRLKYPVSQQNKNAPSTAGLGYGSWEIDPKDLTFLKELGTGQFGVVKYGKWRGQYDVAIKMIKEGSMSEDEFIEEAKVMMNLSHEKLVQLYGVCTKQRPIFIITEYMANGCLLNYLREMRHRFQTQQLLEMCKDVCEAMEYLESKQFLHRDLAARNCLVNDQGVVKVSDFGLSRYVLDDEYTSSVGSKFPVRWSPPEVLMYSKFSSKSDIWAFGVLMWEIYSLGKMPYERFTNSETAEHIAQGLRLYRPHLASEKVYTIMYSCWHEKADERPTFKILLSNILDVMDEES
Method: A Caliper-based kinase assay (Caliper Life Sciences, Hopkinton, Mass.) was used to measure inhibition of Btk kinase activity of a compound of Formula (I). […] The reaction was then terminated with EDTA, final concentration 20 mM and the phosphorylated reaction product was quantified on a Caliper Desktop Profiler (Caliper LabChip 3000). […] This value is presented as the IC50.

| SMILES | IC50 |
| --- | --- |
| CN(C)C(C)(C)C=C(C#N)C(=O)N1CCC[C@H]1Cn1nc(-c2ccc(Oc3cccc(F)c3F)cc2F)c2c(N)ncnc21 [Cpd 106B, (S)-2-(2-((4-amino-3-(4-(2,3-difluorophenoxy)-2-fluorophenyl)-1H-pyrazolo[3,4-d]pyrimidin-1-yl)methyl)pyrrolidine-1-carbonyl)-4-(dimethylamino)-4-methylpent-2-enenitrile] | 1.5 nM |
| COCCNC(C)(C)C=C(C#N)C(=O)N1CCC[C@H]1Cn1nc(-c2ccc(Oc3ccccc3)cc2F)c2c(N)ncnc21 [Cpd 88B, (S)-2-(2-((4-amino-3-(2-fluoro-4-phenoxyphenyl)-1H-pyrazolo[3,4-d]pyrimidin-1-yl)methyl)pyrrolidine-1-carbonyl)-4-((2-methoxyethyl)amino)-4-methylpent-2-enenitrile] | 29 nM |
| N#CC(=CC1CC1)C(=O)N1CCC[C@H]1Cn1nc(-c2ccc(Oc3c(F)cccc3F)cc2F)c2c(N)ncnc21 [Cpd 44B, (S)-2-(2-((4-amino-3-(2-fluoro-4-(2,6-difluorophenoxy)phenyl)-1H-pyrazolo[3,4-d]pyrimidin-1-yl)methyl)pyrrolidine-1-carbonyl)-3-cyclopropylacrylonitrile] | 3 nM |
| N#CC(=CC1CC1)C(=O)NC1CCC(n2nc(-c3ccc(Oc4ccccc4)cc3)c3c(N)ncnc32)CC1 (stereo not shown) [Cpd 11, N-((1s,4s)-4-(4-amino-3-(4-phenoxyphenyl)-1H-pyrazolo[3,4-d]pyrimidin-1-yl)cyclohexyl)-2-cyano-3-cyclopropylacrylamide] | 14 nM |
| CN(C)C(C)(C)C=C(C#N)C(=O)N1CCC[C@@H]1Cn1nc(-c2ccc(Oc3cccc(F)c3F)cc2F)c2c(N)ncnc21 [Cpd 106A, (R)-2-(2-((4-amino-3-(4-(2,3-difluorophenoxy)-2-fluorophenyl)-1H-pyrazolo[3,4-d]pyrimidin-1-yl)methyl)pyrrolidine-1-carbonyl)-4-(dimethylamino)-4-methylpent-2-enenitrile] | 6 nM |
| CC(C)(C=C(C#N)C(=O)N1CCC[C@@H]1Cn1nc(-c2ccc(Oc3ccccc3)cc2F)c2c(N)ncnc21)N1CCOCC1 [Cpd 95A, (R)-2-(2-((4-amino-3-(2-fluoro-4-phenoxyphenyl)-1H-pyrazolo[3,4-d]pyrimidin-1-yl)methyl)pyrrolidine-1-carbonyl)-4-methyl-4-morpholinopent-2-enenitrile] | 26.5 nM |
| CNC(C)(C)C=C(C#N)C(=O)N1CCC[C@@H]1Cn1nc(-c2ccc(Oc3cccc(F)c3F)cc2F)c2c(N)ncnc21 [Cpd 105A, (R)-2-(2-((4-amino-3-(4-(2,3-difluorophenoxy)-2-fluorophenyl)-1H-pyrazolo[3,4-d]pyrimidin-1-yl)methyl)pyrrolidine-1-carbonyl)-4-methyl-4-(methylamino)pent-2-enenitrile] | 1.3 nM |
| CC(C)(C=C(C#N)C(=O)N1CCC[C@H]1Cn1nc(-c2ccc(Oc3ccccc3)cc2F)c2c(N)ncnc21)NC1CC1 [Cpd 87B, (S)-2-(2-((4-amino-3-(2-fluoro-4-phenoxyphenyl)-1H-pyrazolo[3,4-d]pyrimidin-1-yl)methyl)pyrrolidine-1-carbonyl)-4-(cyclopropylamino)-4-methylpent-2-enenitrile] | 12 nM |
| N#CC(=CC1CC1)C(=O)N1CCC[C@@H]1Cn1nc(-c2ccc(Oc3c(F)cccc3F)cc2F)c2c(N)ncnc21 [Cpd 44A, (R)-2-(2-((4-amino-3-(2-fluoro-4-(2,6-difluorophenoxy)phenyl)-1H-pyrazolo[3,4-d]pyrimidin-1-yl)methyl)pyrrolidine-1-carbonyl)-3-cyclopropylacrylonitrile] | 5 nM |
| C[C@H](Cn1nc(-c2ccc(Oc3ccccc3)cc2F)c2c(N)ncnc21)NC(=O)C(C#N)=CC(C)(C)N [Cpd 188] | 0.7 nM |
| N#CC(=CC1CC1)C(=O)N1CCC(n2nc(-c3ccc(Oc4ccccc4)cc3)c3c(N)ncnc32)CC1 [Cpd 3, 2-(4-(4-amino-3-(4-phenoxyphenyl)-1H-pyrazolo[3,4-d]pyrimidin-1-yl)piperidine-1-carbonyl)-3-cyclopropylacrylonitrile] | 175 nM |
| COc1cc(-c2nn(CC3CCCN3C(=O)C(C#N)=CC3CC3)c3ncnc(N)c23)ccc1Oc1ccc(Cl)c(Cl)c1 (stereo not shown) [Cpd 5] | 1 nM |
| CCOC(C)(C)C=C(C#N)C(=O)N1CCC[C@@H]1Cn1nc(-c2ccc(Oc3ccccc3)cc2F)c2c(N)ncnc21 [Cpd 89A, (R)-2-(2-((4-amino-3-(2-fluoro-4-phenoxyphenyl)-1H-pyrazolo[3,4-d]pyrimidin-1-yl)methyl)pyrrolidine-1-carbonyl)-4-ethoxy-4-methylpent-2-enenitrile] | 3100 nM |
| CCOC(C)(C)C=C(C#N)C(=O)N1CCC[C@H]1Cn1nc(-c2ccc(Oc3ccccc3)cc2F)c2c(N)ncnc21 [Cpd 89B, (S)-2-(2-((4-amino-3-(2-fluoro-4-phenoxyphenyl)-1H-pyrazolo[3,4-d]pyrimidin-1-yl)methyl)pyrrolidine-1-carbonyl)-4-ethoxy-4-methylpent-2-enenitrile] | 6600 nM |
| C[C@@H](Cn1nc(-c2ccc(Oc3ccccc3)cc2F)c2c(N)ncnc21)NC(=O)C(C#N)=CC1CC1 [Cpd 197B] | 32.5 nM |
| CC(C)(C=C(C#N)C(=O)N1CCC[C@H]1Cn1nc(-c2ccc(Oc3ccccc3)cc2F)c2c(N)ncnc21)N1CCOCC1 [Cpd 95B, (S)-2-(2-((4-amino-3-(2-fluoro-4-phenoxyphenyl)-1H-pyrazolo[3,4-d]pyrimidin-1-yl)methyl)pyrrolidine-1-carbonyl)-4-methyl-4-morpholinopent-2-enenitrile] | 3.2 nM |
| CNC(C)(C)C=C(C#N)C(=O)N1CCC[C@H]1Cn1nc(-c2ccc(Oc3cccc(F)c3F)cc2F)c2c(N)ncnc21 [Cpd 105B, (S)-2-(2-((4-amino-3-(4-(2,3-difluorophenoxy)-2-fluorophenyl)-1H-pyrazolo[3,4-d]pyrimidin-1-yl)methyl)pyrrolidine-1-carbonyl)-4-methyl-4-(methylamino)pent-2-enenitrile] | 25.5 nM |
| [C-]#[N+]C(=CC1CC1)C(=O)N1CCC[C@@H](n2nc(-c3ccc(Oc4ccccc4)cc3F)c3c(N)ncnc32)C1 [Cpd 22B] | 2.6 nM |

same assay, conditions: read-out: IC50 (μm)

| SMILES | IC50 |
| --- | --- |
| NC(=O)C(=CC1CC1)C(=O)N1CCC[C@@H](n2nc(-c3ccc(Oc4ccccc4)cc3)c3c(N)ncnc32)C1 [Cpd 30A, (R)-2-(3-(4-amino-3-(4-phenoxyphenyl)-1H-pyrazolo[3,4-d]pyrimidin-1-yl)piperidine-1-carbonyl)-3-cyclopropylacrylamide] | 1.7 nM |
